Source: ChEMBL document CHEMBL3885861, “Open TG-GATES”

Species: Rattus norvegicus
Experiment: Open TG-GATES - Regimen: Single
Assay type: toxicity, organism-based, Sprague-Dawley
Parameters: regimen Single, gender Male, age 6 weeks
Conditions: in vivo, po, 6 mg/kg, route gavage, dose level High; for APTT / Bas / Eos / Fbg / Hb / Ht / Lym / MCH / MCHC / MCV / Mono / Neu / PT / Plat / RBC / Ret / WBC: tissue Blood; for KIDNEY_L / KIDNEY_R / KIDNEY_TOTAL: tissue Kidney; for LIVER: tissue Liver; for A/G / ALP / ALT / AST / BUN / CRE / Ca / Cl / DBIL / GLC / IP / K / LDH / Na / PL / RALB / TBIL / TC / TG / TP / gamma-GTP: tissue Plasma

SMILES: O=NN(CCCl)C(=O)NC1CCCCC1 [LOMUSTINE]
- TERMINAL_BW (3 h): 203.9 g
- APTT (3 h): 16.2 s
- Bas (3 h): 0%
- Eos (3 h): 0.4%
- Fbg (3 h): 212.6 mg/dL
- Hb (3 h): 13.3 g/dL
- Ht (3 h): 39.7%
- Lym (3 h): 78.2%
- MCH (3 h): 21.7 pg
- MCHC (3 h): 33.4%
- MCV (3 h): 64.8 fL
- Mono (3 h): 9.4%
- Neu (3 h): 12.2%
- PT (3 h): 11.4 s
- Plat (3 h): 106.7 x10_4/uL
- RBC (3 h): 612.4 x10_4/ul
- Ret (3 h): 8.5%
- WBC (3 h): 112.2 x10_2/uL
- KIDNEY_L (3 h): 0.9 g
- KIDNEY_R (3 h): 0.9 g
- KIDNEY_TOTAL (3 h): 1.9 g
- LIVER (3 h): 10 g
- A/G (3 h): 1.8
- ALP (3 h): 970.2 IU/L
- ALT (3 h): 36.6 IU/L
- AST (3 h): 67.6 IU/L
- BUN (3 h): 13.8 mg/dL
- CRE (3 h): 0.5 mg/dL
- Ca (3 h): 11.3 mg/dL
- Cl (3 h): 105.4 meq/L
- DBIL (3 h): 0.028 mg/dL
- GLC (3 h): 189.6 mg/dL
- IP (3 h): 10.3 mg/dL
- K (3 h): 4.7 meq/L
- LDH (3 h): 161 IU/L
- Na (3 h): 140.4 meq/L
- PL (3 h): 134 mg/dL
- RALB (3 h): 3.6 g/dL
- TBIL (3 h): 0.3 mg/dL
- TC (3 h): 73.8 mg/dL
- TG (3 h): 56.2 mg/dL
- TP (3 h): 5.6 g/dL
- gamma-GTP (3 h): 1.6 IU/L
- TERMINAL_BW (6 h): 201.4 g
- APTT (6 h): 16.7 s
- Bas (6 h): 0%
- Eos (6 h): 0.4%
- Fbg (6 h): 217.8 mg/dL
- Hb (6 h): 13.1 g/dL
- Ht (6 h): 39.4%
- Lym (6 h): 78.6%
- MCH (6 h): 22.2 pg
- MCHC (6 h): 33.3%
- MCV (6 h): 66.7 fL
- Mono (6 h): 7.6%
- Neu (6 h): 13.6%
- PT (6 h): 12.1 s
- Plat (6 h): 108.1 x10_4/uL
- RBC (6 h): 591.6 x10_4/ul
- Ret (6 h): 8.9%
- WBC (6 h): 107.2 x10_2/uL
- KIDNEY_L (6 h): 0.9 g
- KIDNEY_R (6 h): 0.9 g
- KIDNEY_TOTAL (6 h): 1.9 g
- LIVER (6 h): 9.1 g
- A/G (6 h): 1.9
- ALP (6 h): 865 IU/L
- ALT (6 h): 29.4 IU/L
- AST (6 h): 66.2 IU/L
- BUN (6 h): 10.4 mg/dL
- CRE (6 h): 0.5 mg/dL
- Ca (6 h): 11 mg/dL
- Cl (6 h): 104.8 meq/L
- DBIL (6 h): 0.008 mg/dL
- GLC (6 h): 191.8 mg/dL
- IP (6 h): 10.5 mg/dL
- K (6 h): 4.7 meq/L
- LDH (6 h): 152.6 IU/L
- Na (6 h): 139.4 meq/L
- PL (6 h): 132.2 mg/dL
- RALB (6 h): 3.6 g/dL
- TBIL (6 h): 0.3 mg/dL
- TC (6 h): 76 mg/dL
- TG (6 h): 36.6 mg/dL
- TP (6 h): 5.6 g/dL
- gamma-GTP (6 h): 1.8 IU/L
- TERMINAL_BW (9 h): 203.2 g
- APTT (9 h): 16.7 s
- Bas (9 h): 0%
- Eos (9 h): 0.4%
- Fbg (9 h): 224.6 mg/dL
- Hb (9 h): 13.2 g/dL
- Ht (9 h): 40.1%
- Lym (9 h): 79.2%
- MCH (9 h): 21.9 pg
- MCHC (9 h): 32.9%
- MCV (9 h): 66.5 fL
- Mono (9 h): 5.8%
- Neu (9 h): 15%
- PT (9 h): 12.2 s
- Plat (9 h): 104.4 x10_4/uL
- RBC (9 h): 603 x10_4/ul
- Ret (9 h): 9.2%
- WBC (9 h): 97 x10_2/uL
- KIDNEY_L (9 h): 1 g
- KIDNEY_R (9 h): 1 g
- KIDNEY_TOTAL (9 h): 1.9 g
- LIVER (9 h): 8.7 g
- A/G (9 h): 2.2
- ALP (9 h): 889.4 IU/L
- ALT (9 h): 31.4 IU/L
- AST (9 h): 67 IU/L
- BUN (9 h): 13 mg/dL
- CRE (9 h): 0.5 mg/dL
- Ca (9 h): 10.9 mg/dL
- Cl (9 h): 106.4 meq/L
- DBIL (9 h): 0.028 mg/dL
- GLC (9 h): 190.8 mg/dL
- IP (9 h): 11.3 mg/dL
- K (9 h): 5 meq/L
- LDH (9 h): 139.4 IU/L
- Na (9 h): 140 meq/L
- PL (9 h): 139.4 mg/dL
- RALB (9 h): 3.9 g/dL
- TBIL (9 h): 0.3 mg/dL
- TC (9 h): 78.2 mg/dL
- TG (9 h): 39.8 mg/dL
- TP (9 h): 5.7 g/dL
- gamma-GTP (9 h): 1.4 IU/L
- TERMINAL_BW (24 h): 212 g
- APTT (24 h): 15.7 s
- Bas (24 h): 0%
- Eos (24 h): 0.4%
- Fbg (24 h): 214.2 mg/dL
- Hb (24 h): 13.1 g/dL
- Ht (24 h): 39.2%
- Lym (24 h): 84.4%
- MCH (24 h): 21.5 pg
- MCHC (24 h): 33.2%
- MCV (24 h): 64.7 fL
- Mono (24 h): 7%
- Neu (24 h): 7.8%
- PT (24 h): 12.3 s
- Plat (24 h): 107.2 x10_4/uL
- RBC (24 h): 606.6 x10_4/ul
- Ret (24 h): 8.4%
- WBC (24 h): 121.5 x10_2/uL
- KIDNEY_L (24 h): 1 g
- KIDNEY_R (24 h): 1 g
- KIDNEY_TOTAL (24 h): 2 g
- LIVER (24 h): 10.5 g
- A/G (24 h): 2
- ALP (24 h): 873 IU/L
- ALT (24 h): 35.2 IU/L
- AST (24 h): 66.6 IU/L
- BUN (24 h): 17.4 mg/dL
- CRE (24 h): 0.5 mg/dL
- Ca (24 h): 11.2 mg/dL
- Cl (24 h): 105.2 meq/L
- DBIL (24 h): 0.014 mg/dL
- GLC (24 h): 180.4 mg/dL
- IP (24 h): 8.1 mg/dL
- K (24 h): 4.7 meq/L
- LDH (24 h): 106.2 IU/L
- Na (24 h): 137.8 meq/L
- PL (24 h): 144.6 mg/dL
- RALB (24 h): 3.9 g/dL
- TBIL (24 h): 0.3 mg/dL
- TC (24 h): 78.8 mg/dL
- TG (24 h): 71.4 mg/dL
- TP (24 h): 5.8 g/dL
- gamma-GTP (24 h): 1.4 IU/L
